Reference: the supplement of paper PMC10627819

Assays:
S. aureus DSM 20231 [1] = test: fitness (endpoint OD595 vs no drug) (fraction); higher = more growth
How it was run: (§1)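 In 384-well plates at 37 °C, cultures began at OD595 0.01 in 30 µl, with 55 µl used for S. pneumoniae. OD595 readings every 30 min for 14 h were corrected by the first reading. Fitness divides the stationary-phase transition optical density by the robust mean of no-drug control wells. The result is capped at 1.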

S. aureus Newman [2] = test: as above
How it was run: as §1

S. pneumoniae D39V [3] = test: as above
How it was run: as §1

B. subtilis 168 = test: Bliss interaction score (quartile over a dose matrix) (fitness difference); higher = more antagonism (negative = synergy)
How it was run: (§2)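 Fitness was derived from optical density at entry into stationary phase, divided by the robust mean of the no-drug wells on the same plate. That reading was taken as OD595, and the ratio was capped at 1. Single-drug fitness was inferred from the combination data. The Bliss score, observed fitness minus the expected product of single-drug fitness, was summarised as quartiles over technical, biological and donor/recipient replicates.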

S. aureus DSM 20231 [4] = test: as above
How it was run: as §2

S. aureus Newman [5] = test: as above
How it was run: as §2

S. pneumoniae D39V [6] = test: as above
How it was run: as §2
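For Bliss interaction score (quartile over a dose matrix) in this document: first quartile when negative (synergy) and third quartile when positive (antagonism).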

CC1(C)S[C@@H]2[C@H](NC(=O)[C@H](N)c3ccc(O)cc3)C(=O)N2[C@H]1C(=O)O [Amoxicillin] + CO/N=C(\C(=O)N[C@@H]1C(=O)N2C(C(=O)[O-])=C(C[N+]3(C)CCCC3)CS[C@H]12)c1csc(N)n1 [Cefepime]
Details | fitness
S. aureus DSM 20231 [1], first compound 0.0625 µg/mL, partner 0.125 µg/mL | 0.566
S. aureus DSM 20231 [1], first compound 0.0625 µg/mL, partner 0.25 µg/mL | 0.553
S. aureus DSM 20231 [1], first compound 0.0625 µg/mL, partner 0.5 µg/mL | 0.499
S. aureus DSM 20231 [1], first compound 0.125 µg/mL, partner 0.125 µg/mL | 0.393
S. aureus DSM 20231 [1], first compound 0.125 µg/mL, partner 0.25 µg/mL | 0.477
S. aureus DSM 20231 [1], first compound 0.25 µg/mL, partner 0.125 µg/mL | 0.307
S. aureus DSM 20231 [1], first compound 0.25 µg/mL, partner 0.25 µg/mL | 0.195
S. aureus DSM 20231 [1], first compound 0.25 µg/mL, partner 0.5 µg/mL | 0.0559
S. aureus DSM 20231 [1], first compound 0.5 µg/mL, partner 0.125 µg/mL | 0
S. aureus DSM 20231 [1], first compound 0.5 µg/mL, partner 0.25 µg/mL | 0.0413
S. aureus DSM 20231 [1], first compound 0.5 µg/mL, partner 0.5 µg/mL | 0.0026
S. aureus Newman [2], first compound 0.0625 µg/mL, partner 0.125 µg/mL | 0.829
S. aureus Newman [2], first compound 0.0625 µg/mL, partner 0.25 µg/mL | 0.792
S. aureus Newman [2], first compound 0.0625 µg/mL, partner 0.5 µg/mL | 0.707
S. aureus Newman [2], first compound 0.125 µg/mL, partner 0.125 µg/mL | 0.906
S. aureus Newman [2], first compound 0.125 µg/mL, partner 0.25 µg/mL | 0.788
S. aureus Newman [2], first compound 0.125 µg/mL, partner 0.5 µg/mL | 0.736
S. aureus Newman [2], first compound 0.25 µg/mL, partner 0.125 µg/mL | 0.851
S. aureus Newman [2], first compound 0.25 µg/mL, partner 0.25 µg/mL | 0.725
S. aureus Newman [2], first compound 0.25 µg/mL, partner 0.5 µg/mL | 0.753
S. pneumoniae D39V [3], first compound 0.0008 µg/mL, partner 0.007 µg/mL | 0.977
S. pneumoniae D39V [3], first compound 0.0008 µg/mL, partner 0.014 µg/mL | 0.982
S. pneumoniae D39V [3], first compound 0.0008 µg/mL, partner 0.028 µg/mL | 0.849
S. pneumoniae D39V [3], first compound 0.0015 µg/mL, partner 0.007 µg/mL | 0.989
S. pneumoniae D39V [3], first compound 0.0015 µg/mL, partner 0.0078 µg/mL | ≥ 1
S. pneumoniae D39V [3], first compound 0.0015 µg/mL, partner 0.014 µg/mL | 0.959
S. pneumoniae D39V [3], first compound 0.0015 µg/mL, partner 0.0155 µg/mL | ≥ 1
S. pneumoniae D39V [3], first compound 0.0015 µg/mL, partner 0.028 µg/mL | 0.82
S. pneumoniae D39V [3], first compound 0.0015 µg/mL, partner 0.031 µg/mL | 0.792
S. pneumoniae D39V [3], first compound 0.003 µg/mL, partner 0.007 µg/mL | 0.943
S. pneumoniae D39V [3], first compound 0.003 µg/mL, partner 0.0078 µg/mL | ≥ 1
S. pneumoniae D39V [3], first compound 0.003 µg/mL, partner 0.014 µg/mL | 0.942
S. pneumoniae D39V [3], first compound 0.003 µg/mL, partner 0.0155 µg/mL | 0.907
S. pneumoniae D39V [3], first compound 0.003 µg/mL, partner 0.028 µg/mL | 0.813
S. pneumoniae D39V [3], first compound 0.003 µg/mL, partner 0.031 µg/mL | 0.499

fitness, S. pneumoniae D39V [3], one replicate
Details | partner 0.0078 µg/mL | partner 0.0155 µg/mL | partner 0.031 µg/mL
first compound 0.0008 µg/mL | ≥ 1 | ≥ 1 | 0.811
first compound 0.006 µg/mL | 0.484 | 0.384 | 0.103

Details | Bliss interaction score
B. subtilis 168 | 0.0811
S. aureus DSM 20231 [4] | 0.0643
S. aureus Newman [5] | -0.0522
S. pneumoniae D39V [6] | -0.0542

CC1(C)S[C@@H]2[C@H](NC(=O)[C@H](N)c3ccc(O)cc3)C(=O)N2[C@H]1C(=O)O [Amoxicillin] + COc1c(N2C[C@@H]3CCCN[C@@H]3C2)c(F)cc2c(=O)c(C(=O)O)cn(C3CC3)c12 [Moxifloxacin]
Details | fitness
S. aureus DSM 20231 [1], first compound 0.0625 µg/mL, partner 0.0075 µg/mL | 0.51
S. aureus DSM 20231 [1], first compound 0.0625 µg/mL, partner 0.015 µg/mL | 0.482
S. aureus DSM 20231 [1], first compound 0.0625 µg/mL, partner 0.03 µg/mL | 0.403
S. aureus DSM 20231 [1], first compound 0.125 µg/mL, partner 0.0075 µg/mL | 0.382
S. aureus DSM 20231 [1], first compound 0.125 µg/mL, partner 0.015 µg/mL | 0.374
S. aureus DSM 20231 [1], first compound 0.125 µg/mL, partner 0.03 µg/mL | 0.203
S. aureus DSM 20231 [1], first compound 0.25 µg/mL, partner 0.0075 µg/mL | 0.152
S. aureus DSM 20231 [1], first compound 0.25 µg/mL, partner 0.015 µg/mL | 0.119
S. aureus DSM 20231 [1], first compound 0.25 µg/mL, partner 0.03 µg/mL | 0.034
S. aureus DSM 20231 [1], first compound 0.5 µg/mL, partner 0.0075 µg/mL | 0.0102
S. aureus DSM 20231 [1], first compound 0.5 µg/mL, partner 0.015 µg/mL | 0.0002
S. aureus DSM 20231 [1], first compound 0.5 µg/mL, partner 0.03 µg/mL | 0.0026
S. aureus Newman [2], first compound 0.0625 µg/mL, partner 0.0075 µg/mL | 0.715
S. aureus Newman [2], first compound 0.0625 µg/mL, partner 0.015 µg/mL | 0.609
S. aureus Newman [2], first compound 0.125 µg/mL, partner 0.0075 µg/mL | 0.705
S. pneumoniae D39V [3], first compound 0.0008 µg/mL, partner 0.005 µg/mL | 0.968
S. pneumoniae D39V [3], first compound 0.0008 µg/mL, partner 0.01 µg/mL | 0.977
S. pneumoniae D39V [3], first compound 0.0008 µg/mL, partner 0.02 µg/mL | 0.913
S. pneumoniae D39V [3], first compound 0.0015 µg/mL, partner 0.005 µg/mL | 0.972
S. pneumoniae D39V [3], first compound 0.0015 µg/mL, partner 0.01 µg/mL | 0.967
S. pneumoniae D39V [3], first compound 0.0015 µg/mL, partner 0.02 µg/mL | 0.905
S. pneumoniae D39V [3], first compound 0.0015 µg/mL, partner 0.0312 µg/mL | 0.314
S. pneumoniae D39V [3], first compound 0.0015 µg/mL, partner 0.0625 µg/mL | 0.147
S. pneumoniae D39V [3], first compound 0.0015 µg/mL, partner 0.125 µg/mL | 0.0837
S. pneumoniae D39V [3], first compound 0.003 µg/mL, partner 0.005 µg/mL | 0.92
S. pneumoniae D39V [3], first compound 0.003 µg/mL, partner 0.01 µg/mL | 0.92
S. pneumoniae D39V [3], first compound 0.003 µg/mL, partner 0.02 µg/mL | 0.901
S. pneumoniae D39V [3], first compound 0.003 µg/mL, partner 0.0312 µg/mL | 0.277
S. pneumoniae D39V [3], first compound 0.003 µg/mL, partner 0.0625 µg/mL | 0.211
S. pneumoniae D39V [3], first compound 0.003 µg/mL, partner 0.125 µg/mL | 0.0689

one replicate
Details | fitness
S. aureus DSM 20231 [1], first compound 0.125 µg/mL, partner 0.06 µg/mL | 0.388
S. aureus DSM 20231 [1], first compound 0.125 µg/mL, partner 0.12 µg/mL | 0.0813
S. aureus DSM 20231 [1], first compound 0.25 µg/mL, partner 0.06 µg/mL | 0.112
S. aureus DSM 20231 [1], first compound 0.25 µg/mL, partner 0.12 µg/mL | 0.0126
S. aureus DSM 20231 [1], first compound 0.5 µg/mL, partner 0.06 µg/mL | 0.0085
S. aureus DSM 20231 [1], first compound 0.5 µg/mL, partner 0.12 µg/mL | 0.0156
S. pneumoniae D39V [3], first compound 0.0008 µg/mL, partner 0.0312 µg/mL | 0.209
S. pneumoniae D39V [3], first compound 0.0008 µg/mL, partner 0.0625 µg/mL | 0.167
S. pneumoniae D39V [3], first compound 0.0008 µg/mL, partner 0.125 µg/mL | 0.103
S. pneumoniae D39V [3], first compound 0.006 µg/mL, partner 0.0312 µg/mL | 0.0891
S. pneumoniae D39V [3], first compound 0.006 µg/mL, partner 0.0625 µg/mL | 0.0684
S. pneumoniae D39V [3], first compound 0.006 µg/mL, partner 0.125 µg/mL | 0.0138

Details | Bliss interaction score
B. subtilis 168 | 0.0481
S. aureus DSM 20231 [4] | -0.0301
S. aureus Newman [5] | 0.046
S. pneumoniae D39V [6] | 0.0639
